Test results as given in patent publication US12606541B2, “PPARg modulators and methods of use” (Eisai R&D Management Co., Ltd., priority 2020, dated 2026).

Target: T1, His6-TEV-PPARγ-(234-505) (Homo sapiens, UniProt P37231)
T1 construct: The His6-TEV-PPARγ-(234-505) protein for assay was expressed and purified; TEV cleavage site (N); made in house
T1 sequence (P37231 234-505): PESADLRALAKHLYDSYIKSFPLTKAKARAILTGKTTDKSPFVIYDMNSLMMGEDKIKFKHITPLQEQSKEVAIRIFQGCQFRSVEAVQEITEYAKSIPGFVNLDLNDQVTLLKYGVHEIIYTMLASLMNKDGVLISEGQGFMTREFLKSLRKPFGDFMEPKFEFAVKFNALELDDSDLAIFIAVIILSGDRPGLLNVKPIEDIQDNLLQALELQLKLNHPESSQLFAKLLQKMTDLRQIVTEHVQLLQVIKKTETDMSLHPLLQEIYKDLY
Test: TR-FRET Assay to Measure Co-R Peptide Recruitment to PPARγ
Format: biochemical
Details: Co-R peptide recruitment to PPARγ; read-out: TR-FRET AC50
Experimental: TR-FRET Assay to Measure Co—R Peptide Recruitment to PPARγ
The 2× detection solution contained anti-6×His-Terbium antibody (CisBio) and FITC labeled Co—R peptide (SMRT-ID2 from New England Peptide) at final concentrations of 5 and 200 nM respectively.
In these assay plates, the positive control in column 24 contained 500 nM (final) T0070907 and the negative control in column 23 contained an identical volume of DMSO. Then, 5 μL of 2+ protein working stock or controls were added to the plate and incubated for 20 minutes at room temperature. Reagents additions were performed with either a Combi (Thermo) or Mantis (Formulatory) pipetting device. The incubation was followed by addition of 5 μL of the 2× detection solution. Plates were covered, centrifuged, and incubated for an additional hour. The TR-FRET data was recorded with an Envision plate reader (Perkin Elmer), using settings recommended by Thermo Fisher. The TR-FRET signal of the positive and negative control's recruitment of FITC-Co—R peptide was used to normalize the TR-FRET signal to percent response and to determine the assay Z prime. Experiments were performed in triplicate and analyzed in GraphPad Prism 7.

Row | SMILES | AC50
1 | COc1cc(-c2cc(C(=O)N3CCC(C(=O)Nc4nc(C)cnc4C)CC3)n[nH]2)c(Cl)cn1 [1-[5-(5-chloro-2-methoxypyridin-4-yl)-1H-pyrazole-3-carbonyl]-N-(3,6-dimethylpyrazin-2-yl)piperidine-4-carboxamide] | > 1000 nM
2 | COc1cc(-c2cc(C(=O)N3CCC(C(=O)NCCn4ccccc4=O)CC3)n[nH]2)c(Cl)cn1 [1-[5-(5-chloro-2-methoxypyridin-4-yl)-1H-pyrazole-3-carbonyl]-N-[2-(2-oxo-1,2-dihydropyridin-1-yl)ethyl]piperidine-4-carboxamide] | > 1000 nM
3 | COc1cc(-c2cc(C(=O)N3CCC(C(=O)NCc4ncon4)CC3)n[nH]2)c(Cl)cn1 [1-[5-(5-chloro-2-methoxypyridin-4-yl)-1H-pyrazole-3-carbonyl]-N-[(1,2,4-oxadiazol-3-yl)methyl]piperidine-4-carboxamide] | > 1000 nM
4 | COc1cc(-c2cc(C(=O)N3CCC(C(=O)NCc4ccncn4)CC3)n[nH]2)c(Cl)cn1 [1-[5-(5-chloro-2-methoxypyridin-4-yl)-1H-pyrazole-3-carbonyl]-N-[(pyrimidin-4-yl)methyl]piperidine-4-carboxamide] | > 1000 nM
5 | COc1cc(-c2cc(C(=O)N3CCC(C(=O)NCC4CC(=O)N(C)C4)CC3)n[nH]2)c(Cl)cn1 (centres unmarked) [1-[5-(5-chloro-2-methoxypyridin-4-yl)-1H-pyrazole-3-carbonyl]-N-[(1-methyl-5-oxopyrrolidin-3-yl)methyl]piperidine-4-carboxamide] | > 1000 nM
6 | COc1cc(-c2cc(C(=O)N3CCC(C(=O)NCc4ncco4)CC3)n[nH]2)c(Cl)cn1 [1-[5-(5-chloro-2-methoxypyridin-4-yl)-1H-pyrazole-3-carbonyl]-N-[(1,3-oxazol-2-yl)methyl]piperidine-4-carboxamide] | > 1000 nM
7 | COc1cc(-c2cc(C(=O)N3CCC(C(=O)NC4(C)CCOCC4)CC3)n[nH]2)c(Cl)cn1 [1-[5-(5-chloro-2-methoxypyridin-4-yl)-1H-pyrazole-3-carbonyl]-N-(4-methyloxan-4-yl)piperidine-4-carboxamide] | > 1000 nM

Other lines, results leading:

Row | AC50 | SMILES
8 | > 1000 nM | COc1cc(-c2cc(C(=O)N3CCC(C(=O)NC45CC(C4)C5)CC3)n[nH]2)c(Cl)cn1 [N-{bicyclo[1.1.1]pentan-1-yl}-1-[5-(5-chloro-2-methoxypyridin-4-yl)-1H-pyrazole-3-carbonyl]piperidine-4-carboxamide]
9 | > 1000 nM | COc1cc(-c2cc(C(=O)N3CCC(C(=O)NC4COC(C)OC4)CC3)n[nH]2)c(F)cn1 (centres unmarked) [1-[5-(5-fluoro-2-methoxypyridin-4-yl)-1H-pyrazole-3-carbonyl]-N-(2-methyl-1,3-dioxan-5-yl)piperidine-4-carboxamide]
10 | > 1000 nM | O=C(N[C@H]1CCN(Cc2ccccc2)C1)C1CCN(C(=O)c2cc(-c3cccnc3)[nH]n2)CC1 [N-[(3S)-1-benzylpyrrolidin-3-yl]-1-[5-(pyridin-3-yl)-1H-pyrazole-3-carbonyl]piperidine-4-carboxamide]
11 | > 1000 nM | CN(CCC#N)C(=O)C1CCN(C(=O)c2cc(-c3ccncc3)[nH]n2)CC1 [N-(2-cyanoethyl)-N-methyl-1-[5-(pyridin-4-yl)-1H-pyrazole-3-carbonyl]piperidine-4-carboxamide]
12 | > 1000 nM | O=C(NCc1cc(Cl)ccc1Cl)C1CCN(C(=O)c2cc(-c3cccnc3)[nH]n2)CC1 [N-[(2,5-dichlorophenyl)methyl]-1-[5-(pyridin-3-yl)-1H-pyrazole-3-carbonyl]piperidine-4-carboxamide]
13 | > 1000 nM | COc1cc(-c2cc(C(=O)N3CCC(C(=O)NCc4cccc(Cl)c4)C4C3C4(F)F)n[nH]2)c(Cl)cn1 (centres unmarked) [2-[5-(5-chloro-2-methoxypyridin-4-yl)-1H-pyrazole-3-carbonyl]-N-[(3-chlorophenyl)methyl]-7,7-difluoro-2-azabicyclo[4.1.0]heptane-5-carboxamide]
14 | > 1000 nM | O=C(NCc1ccccc1F)C1CCN(C(=O)c2cc(-c3ccncc3)[nH]n2)CC1 [N-[(2-fluorophenyl)methyl]-1-[5-(pyridin-4-yl)-1H-pyrazole-3-carbonyl]piperidine-4-carboxamide]
